In patent US9474790B2, “Stable, protracted GLP-1/glucagon receptor co-agonists for medical use” (Novo Nordisk A/S, priority 2013, dated 2016):
Numbered stars: 1 amine (or outer) side, 2 acyl side, 3 side chain; on linkers, the order of the positions; unused ones are H or OH. Bridge positions count the residues as written; N and C are the ends. Square brackets hold non-standard residues; d marks the D form. Side chains are listed from the residue outwards. Peptide text beside a SMILES is read from it. I, II: the chains in the order shown. * marks the point of attachment. C18 diacid = O=C(O)CCCCCCCCCCCCCCCCC(=O)*; γGlu = O=C(O)[C@H](CCC(=O)[*:2])N[*:1]; AEEA = NCCOCCOCC(=O)O; Aib = CC(C)(N)C(=O)O

target: T1, human GLP-1 receptor (Homo sapiens, UniProt P43220); test: GLP-1 receptor binding, 125I-GLP-1 displacement SPA on isolated membranes; conditions: displacement of 125I-GLP-1 from membranes; read-out: IC50 GLP-1R
T1 construct: expressed in transfected cells; host or cells: BHK cells (parent BHKTS13), clone FCW467-12A/KZ10-1, with CRE luciferase
Outline: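 Test derivatives, serially diluted, competed with 125I-GLP-1(7-36)NH2 for the human GLP-1 receptor on BHK membranes, read by WGA-bead scintillation proximity after 2 h at 30°C, pH 7.4 HEPES/EGTA/MgCl2 buffer. Final serum albumin was either ≤0.001% or 2.0%; IC50 from non-linear fit.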

T1 sequence (P43220 24-463): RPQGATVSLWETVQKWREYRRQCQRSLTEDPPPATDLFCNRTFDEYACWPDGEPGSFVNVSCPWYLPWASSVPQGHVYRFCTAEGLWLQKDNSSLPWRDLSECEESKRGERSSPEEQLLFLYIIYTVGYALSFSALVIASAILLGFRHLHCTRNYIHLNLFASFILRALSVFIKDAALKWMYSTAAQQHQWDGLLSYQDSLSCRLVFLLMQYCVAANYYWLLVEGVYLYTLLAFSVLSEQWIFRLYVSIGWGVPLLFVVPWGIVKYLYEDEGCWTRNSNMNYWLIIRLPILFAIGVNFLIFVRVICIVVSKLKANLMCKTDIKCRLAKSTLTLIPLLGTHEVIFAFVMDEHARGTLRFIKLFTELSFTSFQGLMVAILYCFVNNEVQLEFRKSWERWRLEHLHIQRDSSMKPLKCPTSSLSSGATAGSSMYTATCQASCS

`CC(C)C[C@H](NC(=O)[C@H](Cc1ccc(O)cc1)NC(=O)[C@H](CCCCN)NC(=O)[C@H](CO)NC(=O)[C@H](CC(C)C)NC(=O)[C@H](CC(=O)O)NC(=O)[C@H](CO)NC(=O)[C@@H](NC(=O)[C@H](Cc1ccccc1)NC(=O)[C@@H](NC(=O)CNC(=O)[C@H](CCC(N)=O)NC(=O)C(C)(C)NC(=O)[C@@H](N)Cc1c[nH]cn1)[C@@H](C)O)[C@@H](C)O)C(=O)N[C@@H](CCC(=O)O)C(=O)N[C@@H](CO)C(=O)N[C@@H](CCCNC(=N)N)C(=O)N[C@@H](CCCNC(=N)N)C(=O)N[C@@H](C)C(=O)N[C@@H](CCCNC(=N)N)C(=O)N[C@@H](CCC(=O)O)C(=O)N[C@@H](Cc1ccccc1)C(=O)N[C@H](C(=O)N[C@@H](CCC(N)=O)C(=O)N[C@@H](Cc1c[nH]c2ccccc12)C(=O)N[C@@H](CC(C)C)C(=O)N[C@@H](CC(C)C)C(=O)N[C@@H](CCCCNC(=O)CC[C@H](NC(=O)COCCOCCNC(=O)COCCOCCNC(=O)CC[C@H](NC(=O)CC[C@H](NC(=O)CCCCCCCCCCCCCCCCC(=O)O)C(=O)O)C(=O)O)C(=O)O)C(=O)N[C@H](C(N)=O)[C@@H](C)O)C(C)C` [Example 20, N^ε29-[(4S)-4-carboxy-4-[[2-[2-[2-[[2-[2-[2-[[(4S)-4-carboxy-4-[[(4S)-4-carboxy-4-(17-carboxyheptadecanoylamino)butanoyl]amino]butanoyl]amino]ethoxy]ethoxy]acetyl]amino]ethoxy]ethoxy]acetyl]amino]butanoyl]-[Aib2,Leu10,Glu15,Arg20,Glu21,Leu27,Lys28]-Glucagon amide] (H-H[Aib]QGTFTSDLSKYLESRRAREFVQWLLK([γGlu-AEEA-AEEA-γGlu-γGlu-C18 diacid])T-NH2; N-terminus assumed) and `CC(C)C[C@H](NC(=O)[C@H](Cc1ccc(O)cc1)NC(=O)[C@H](CCCCN)NC(=O)[C@H](CO)NC(=O)[C@H](CC(C)C)NC(=O)[C@H](CC(=O)O)NC(=O)[C@H](CO)NC(=O)[C@@H](NC(=O)[C@H](Cc1ccccc1)NC(=O)[C@@H](NC(=O)CNC(=O)[C@H](CCC(N)=O)NC(=O)C(C)(C)NC(=O)[C@@H](N)Cc1c[nH]cn1)[C@@H](C)O)[C@@H](C)O)C(=O)N[C@@H](CCC(=O)O)C(=O)N[C@@H](CO)C(=O)N[C@@H](CCCNC(=N)N)C(=O)N[C@@H](CCCNC(=N)N)C(=O)N[C@@H](C)C(=O)N[C@@H](CCCNC(=N)N)C(=O)N[C@@H](CCC(=O)O)C(=O)N[C@@H](Cc1ccccc1)C(=O)N[C@H](C(=O)N[C@@H](CCC(N)=O)C(=O)N[C@@H](Cc1c[nH]c2ccccc12)C(=O)N[C@@H](CC(C)C)C(=O)N[C@@H](CC(C)C)C(=O)N[C@@H](CCCCNC(=O)CC[C@H](NC(=O)CC[C@H](NC(=O)COCCOCCNC(=O)COCCOCCNC(=O)CC[C@H](NC(=O)CCCCCCCCCCCCCCCCC(=O)O)C(=O)O)C(=O)O)C(=O)O)C(=O)N[C@H](C(N)=O)[C@@H](C)O)C(C)C` [Example 23, N^ε28-[(4S)-4-carboxy-4-[[(4S)-4-carboxy-4-[[2-[2-[2-[[2-[2-[2-[[(4S)-4-carboxy-4-(17-carboxyheptadecanoylamino)butanoyl]amino]ethoxy]ethoxy]acetyl]amino]ethoxy]ethoxy]acetyl]amino]butanoyl]amino]butanoyl]-[Aib2,Leu10,Glu15,Arg20,Glu21,Leu27,Lys28]-Glucagon amide] (H-H[Aib]QGTFTSDLSKYLESRRAREFVQWLLK([γGlu-γGlu-AEEA-AEEA-γGlu-C18 diacid])T-NH2; N-terminus assumed) are within 1.5-fold of each other in IC50: 0.4 nM for the first, 0.3 nM for the second.

Compared with `CC(C)C[C@H](NC(=O)[C@H](CC(C)C)NC(=O)[C@H](Cc1c[nH]c2ccccc12)NC(=O)[C@H](CCC(N)=O)NC(=O)[C@@H](NC(=O)[C@H](Cc1ccccc1)NC(=O)[C@H](CCC(=O)O)NC(=O)[C@H](CCCNC(=N)N)NC(=O)[C@H](C)NC(=O)[C@H](CCCNC(=N)N)NC(=O)[C@H](CCCNC(=N)N)NC(=O)[C@H](CO)NC(=O)[C@H](CCC(=O)O)NC(=O)[C@H](CC(C)C)NC(=O)[C@H](Cc1ccc(O)cc1)NC(=O)[C@H](CCCCN)NC(=O)[C@H](CO)NC(=O)[C@H](CC(C)C)NC(=O)[C@H](CC(=O)O)NC(=O)[C@H](CO)NC(=O)[C@@H](NC(=O)[C@H](Cc1ccccc1)NC(=O)[C@@H](NC(=O)CNC(=O)[C@H](CCC(N)=O)NC(=O)C(C)(C)NC(=O)[C@@H](N)Cc1c[nH]cn1)[C@@H](C)O)[C@@H](C)O)C(C)C)C(=O)N[C@@H](CC(N)=O)C(=O)N[C@@H](CCCCNC(=O)CC[C@H](NC(=O)COCCOCCNC(=O)COCCOCCNC(=O)CC[C@H](NC(=O)CC[C@H](NC(=O)CCCCCCCCCCCCCCCCC(=O)O)C(=O)O)C(=O)O)C(=O)O)C(N)=O` [Example 21, N^ε29-[(4S)-4-carboxy-4-[[2-[2-[2-[[2-[2-[2-[[(4S)-4-carboxy-4-[[(4S)-4-carboxy-4-(17-carboxyheptadecanoylamino)butanoyl]amino]butanoyl]amino]ethoxy]ethoxy]acetyl]amino]ethoxy]ethoxy]acetyl]amino]butanoyl]-[Aib2,Leu10,Glu15,Arg20,Glu21,Leu27,Lys29]-Glucagon amide] (H-H[Aib]QGTFTSDLSKYLESRRAREFVQWLLNK([γGlu-AEEA-AEEA-γGlu-γGlu-C18 diacid])-NH2; N-terminus assumed), `CC(C)C[C@H](NC(=O)[C@H](CC(=O)O)NC(=O)[C@H](CC(C)C)NC(=O)[C@H](Cc1ccc(O)cc1)NC(=O)[C@H](CCCCN)NC(=O)[C@H](CO)NC(=O)[C@H](CC(C)C)NC(=O)[C@H](CC(=O)O)NC(=O)[C@H](CO)NC(=O)[C@@H](NC(=O)[C@H](Cc1ccccc1)NC(=O)[C@@H](NC(=O)CNC(=O)[C@H](CCC(N)=O)NC(=O)C(C)(C)NC(=O)[C@@H](N)Cc1c[nH]cn1)[C@@H](C)O)[C@@H](C)O)C(=O)N[C@@H](CCCCN)C(=O)N[C@@H](CCCNC(=N)N)C(=O)N[C@@H](C)C(=O)N[C@@H](CCCNC(=N)N)C(=O)N[C@@H](CCC(=O)O)C(=O)N[C@@H](Cc1ccccc1)C(=O)N[C@H](C(=O)N[C@@H](CCC(N)=O)C(=O)N[C@@H](Cc1c[nH]c2ccccc12)C(=O)N[C@@H](CC(C)C)C(=O)N[C@@H](CC(C)C)C(=O)N[C@@H](CCCCNC(=O)CC[C@H](NC(=O)CC[C@H](NC(=O)COCCOCCNC(=O)COCCOCCNC(=O)CC[C@H](NC(=O)CCCCCCCCCCCCCCCCC(=O)O)C(=O)O)C(=O)O)C(=O)O)C(=O)N[C@H](C(N)=O)[C@@H](C)O)C(C)C` [Example 26, N^ε28-[(4S)-4-carboxy-4-[[(4S)-4-carboxy-4-[[2-[2-[2-[[2-[2-[2-[[(4S)-4-carboxy-4-(17-carboxyheptadecanoylamino)butanoyl]amino]ethoxy]ethoxy]-acetyl]amino]ethoxy]ethoxy]acetyl]amino]butanoyl]amino]butanoyl]-[Aib2,Leu10,Leu16,Lys17,Arg20,Glu21, Leu27,Lys28]-Glucagon amide] (H-H[Aib]QGTFTSDLSKYLDLKRAREFVQWLLK([γGlu-γGlu-AEEA-AEEA-γGlu-C18 diacid])T-NH2) is 1.7-fold higher in IC50: 0.3 nM for the first, 0.5 nM for the second.

`CC(C)C[C@H](NC(=O)[C@H](Cc1ccc(O)cc1)NC(=O)[C@H](CCCCN)NC(=O)[C@H](CO)NC(=O)[C@H](CC(C)C)NC(=O)[C@H](CC(=O)O)NC(=O)[C@H](CO)NC(=O)[C@@H](NC(=O)[C@H](Cc1ccccc1)NC(=O)[C@@H](NC(=O)CNC(=O)[C@H](CCC(N)=O)NC(=O)C(C)(C)NC(=O)[C@@H](N)Cc1c[nH]cn1)[C@@H](C)O)[C@@H](C)O)C(=O)N[C@@H](CCC(=O)O)C(=O)N[C@@H](CO)C(=O)N[C@@H](CCCCN)C(=O)N[C@@H](CCCNC(=N)N)C(=O)N[C@@H](C)C(=O)N[C@@H](CCCNC(=N)N)C(=O)N[C@@H](CCC(=O)O)C(=O)N[C@@H](Cc1ccccc1)C(=O)N[C@H](C(=O)N[C@@H](CCC(N)=O)C(=O)N[C@@H](Cc1c[nH]c2ccccc12)C(=O)N[C@@H](CC(C)C)C(=O)N[C@@H](CC(C)C)C(=O)N[C@@H](CCCCNC(=O)CNC(=O)[C@H](CO)NC(=O)[C@H](CCC(=O)O)NC(=O)CNC(=O)[C@H](CO)NC(=O)CC[C@H](NC(=O)CC[C@H](NC(=O)CCCCCCCCCCCCCCCCC(=O)O)C(=O)O)C(=O)O)C(=O)N[C@H](C(N)=O)[C@@H](C)O)C(C)C` [Example 25, N^ε28-[2-[[(2S)-2-[[(2S)-4-carboxy-2-[[2-[[(2S)-2-[[(4S)-4-carboxy-4-[[(4S)-4-carboxy-4-(17-carboxyheptadecanoylamino)butanoyl]amino]butanoyl]amino]-3-hydroxypropanoyl]amino]acetyl]amino]butanoyl]amino]-3-hydroxypropanoyl]amino]acetyl]-[Aib2,Leu10,Glu15,Lys17,Arg20,Glu21,Leu27,Lys28]-Glucagon amide] (I: H-H[Aib]QGTFTSDLSKYLESKRAREFVQWLLKT-NH2 / II: {C18 diacid-γGlu-γGlu}-SGESG; amide I:28-II:C; N-terminus assumed) was tested, and the IC50 was 0.2 nM.
